# Target: T1, human NOX4 (Homo sapiens, UniProt Q9NPH5)
# T1 construct: The full-length human NOX4 (NM_016931.3) transcript was cloned; expressed in transfected cells
# T1 sequence (Q9NPH5 1-578): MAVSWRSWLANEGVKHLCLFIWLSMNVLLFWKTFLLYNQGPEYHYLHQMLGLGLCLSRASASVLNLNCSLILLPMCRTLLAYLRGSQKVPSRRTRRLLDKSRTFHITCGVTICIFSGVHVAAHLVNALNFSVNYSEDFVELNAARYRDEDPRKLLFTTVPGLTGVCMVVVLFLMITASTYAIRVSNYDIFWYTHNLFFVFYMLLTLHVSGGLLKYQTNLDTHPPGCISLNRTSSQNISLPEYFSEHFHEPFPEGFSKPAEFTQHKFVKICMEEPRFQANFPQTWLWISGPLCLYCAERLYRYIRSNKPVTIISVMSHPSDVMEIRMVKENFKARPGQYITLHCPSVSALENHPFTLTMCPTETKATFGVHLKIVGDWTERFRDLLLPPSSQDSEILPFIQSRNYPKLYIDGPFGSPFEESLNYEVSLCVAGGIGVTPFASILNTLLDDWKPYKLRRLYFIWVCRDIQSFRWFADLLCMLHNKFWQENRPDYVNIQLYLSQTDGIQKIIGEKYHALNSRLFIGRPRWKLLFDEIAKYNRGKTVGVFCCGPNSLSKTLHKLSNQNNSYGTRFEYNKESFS
# T1 sequence (P13498 1-195 partner): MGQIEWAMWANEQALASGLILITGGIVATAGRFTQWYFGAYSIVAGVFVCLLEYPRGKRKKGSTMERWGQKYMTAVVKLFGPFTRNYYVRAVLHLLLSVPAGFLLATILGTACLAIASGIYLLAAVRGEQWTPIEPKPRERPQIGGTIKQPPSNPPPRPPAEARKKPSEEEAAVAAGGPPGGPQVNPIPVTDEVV
# Test: Amplex Red activity assay (cellular H2O2 formation in hNOX4 T-REx-293 cells)
# Assay type: cell-based
# Conditions: tet-induced 24 h, extracellular H2O2 by Amplex Red, 60 min 25° C., geometric mean if determined several times
# Protocol: The nucleotide sequence and the amino acid sequence for the human NOX4 (Entrez Gene ID 50507) is known in the art and are published. The potency and efficacy of the compounds of Formula (I) are assessed for their potential to inhibit the formation of ROS in a cellular assay.
# The full-length human NOX4 (NM_016931.3) transcript was cloned into the pDONR™221 vector (Life Technologies™) in order to generate, by site-specific integration according to the recommendation of the manufacturer (Life Technologies™), a recombinant pJTI™ R4 DEST CMV-TO vector containing the NOX4 coding information controlled by tetracycline (tet) responsive tet-on cytomegalovirus promoter (hNOX4 pDEST).
# Modified human embryonic kidney cells overexpressing a tet receptor (Jump-In™ T-REx™ HEK293; Life Technologies™) were transfected with the NOX4-containing tet-on vector (hNOX4 pDEST) to generate a stable recombinant cell pool (hNOX4 T-REx-293). hNOX4 T-REx-293 cells were cultured in DMEM containing 4.5 g/L glucose supplemented with 10% fetal calf serum, penicillin (100 U/mL), streptomycin (100 μg/mL), geneticin (1 mg/mL), and blasticidin (5 μg/mL) at 37° C. in air with 5% CO2. Human Nox4 expression was induced with tet (1 μg/mL) for 24 h and extracellular H2O2 was quantified using the Amplex Red reagent (Life Technologies™).
# Compounds were prepared as 10 mM stock solution in DMSO vehicle, then diluted in 384-well plates using DMSO followed by a transfer of the dilutions into the assay plate. As a control, diphenylene iodonium was included at a final concentration of 10 μM. Compounds were tested at 10 concentrations in the range from 50 μM highest to 100 nM lowest.
# Cellular H2O2 formation was measured using the Amplex Red reagent. […] Cells were seeded into 384-well clear bottom plates at a density of 20 000 cells per well in presence or absence of compounds. […] All wells contained 1.25% of DMSO. The plates were kept at 25° C. for 60 min. The amount of produced resorufin was detected with the Synergy™ Mx microplate reader (BioTek) with excitation and emission wavelengths set to 550 nm and 600 nm, respectively. Fluorescence was measured for each well and the fluorescence at 600 nm wavelength was compared to the fluorescence of the vehicle in place of compound. Inhibitory activities of example compounds were determined by calculating the IC50 value (the concentration of compound needed to inhibit 50% of the enzyme activity). The calculated IC50 values may fluctuate depending on the daily cellular assay performance. Fluctuations of this kind are known to those skilled in the art.
row,IC50 [nM],SMILES
1,688,"CC1(O)CN(c2nc3cc(NC(=O)c4ccc5c(c4)CCO5)ccc3o2)C1 [Example 12, 2,3-Dihydro-benzofuran-5-carboxylic acid [2-(3-hydroxy-3-methyl-azetidin-1-yl)-benzooxazol-5-yl]-amide]"
2,3860,"CN1CCOc2ccc(C(=O)Nc3ccc4oc(N5CCCCC5)nc4c3)cc21 [Example 185, 4-Methyl-3,4-dihydro-2H-benzo[1,4]oxazine-6-carboxylic acid (2-piperidin-1-yl-benzooxazol-5-yl)-amide]"
3,1090,"O=C(Nc1ccc2oc(N3CCC(O)CC3)nc2c1)c1ccc2c(c1)OCO2 [Example 135, Benzo[1,3]dioxole-5-carboxylic acid [2-(4-hydroxy-piperidin-1-yl]-benzooxazol-5-yl]-amide]"
4,541,"O=C(Nc1ccc2oc(N3CCC[C@H](O)C3)nc2c1)c1ccc2c(c1)CCO2 [Example 43, 2,3-Dihydro-benzofuran-5-carboxylic acid [2-((S)-3-hydroxy-piperidin-1-yl)-benzooxazol-5-yl]-amide]"
5,9390,"CC(C)OC1CN(c2nc3cc(NC(=O)c4ccc5c(c4)CCO5)ccc3s2)C1 [Example 106, 2,3-Dihydro-benzofuran-5-carboxylic acid [2-(3-isopropoxy-azetidin-1-yl)-benzothiazol-5-yl]-amide]"
6,889,"O=C(Nc1ccc2oc(N3CC4(C3)CS(=O)(=O)C4)nc2c1)c1ccc2c(c1)CCO2 [Example 70, 2,3-Dihydro-benzofuran-5-carboxylic acid [2-(2,2-dioxo-2l6-thia-6-aza-spiro[3.3]hept-6-yl)-benzooxazol-5-yl]-amide]"
7,559,"CCN(CC)c1nc2cc(NC(=O)c3ccc4c(c3)CCO4)ccc2o1 [Example 6, 2,3-Dihydro-benzofuran-5-carboxylic acid (2-diethylamino-benzooxazol-5-yl)-amide]"
8,26800,"COC1CCN(c2nc3cc(C(=O)Nc4ccc5c(c4)OCCO5)ccc3s2)CC1 [Example 205, 2-(4-Methoxy-piperidin-1-yl)-benzothiazole-5-carboxylic acid (2,3-dihydro-benzo[1,4]dioxin-6-yl)-amide]"
9,2130,"O=C(Nc1ccc2oc(N3CC(N4CCCC4)C3)nc2c1)c1ccc2c(c1)CCO2 [Example 64, 2,3-Dihydro-benzofuran-5-carboxylic acid [2-(3-pyrrolidin-1-yl-azetidin-1-yl)-benzooxazol-5-yl]-amide]"
10,1770,"CN1CCOc2ccc(C(=O)Nc3ccc4oc(N5CCC56COC6)nc4c3)cc21 [Example 180, 4-Methyl-3,4-dihydro-2H-benzo[1,4]oxazine-6-carboxylic acid [2-(6-oxa-1-aza-spiro[3.3]hept-1-yl)-benzooxazol-5-yl]-amide]"
11,6870,"CN1CCOc2ccc(C(=O)Nc3ccc4oc(N5CC(O)C5)nc4c3)cc21 [Example 177, 4-Methyl-3,4-dihydro-2H-benzo[1,4]oxazine-6-carboxylic acid [2-(3-hydroxy-azetidin-1-yl)-benzooxazol-5-yl]-amide]"
12,1300,"O=C(Nc1ccc2oc(N3CCC4(CC3)COC4)nc2c1)c1ccc2c(c1)CCCO2 [Example 153, Chroman-6-carboxylic acid [2-(2-oxa-7-aza-spiro[3.5]non-7-yl)-benzooxazol-5-yl]-amide]"
13,505,"O=C(Nc1ccc2oc(N3CCC4(COC4)C3)nc2c1)c1ccc2c(c1)CCO2 [Example 22, 2,3-Dihydro-benzofuran-5-carboxylic acid [2-(2-oxa-6-aza-spiro[3.4]oct-6-yl)-benzooxazol-5-yl]-amide]"
14,2200,"O=C(Nc1ccc2oc(N3CCCC(F)(F)C3)nc2c1)c1ccc2c(c1)CCCO2 [Example 150, Chroman-6-carboxylic acid [2-(3,3-difluoro-piperidin-1-yl)-benzooxazol-5-yl]-amide]"
15,3580,"CN1CCOc2ccc(C(=O)Nc3ccc4oc(N5CCC6(CC5)COC6)nc4c3)cc21 [Example 190, 4-Methyl-3,4-dihydro-2H-benzo[1,4]oxazine-6-carboxylic acid [2-(2-oxa-7-aza-spiro[3.5]non-7-yl)-benzooxazol-5-yl]-amide]"
16,851,"CC(C)(O)C1CN(c2nc3cc(NC(=O)c4ccc5c(c4)CCO5)ccc3o2)C1 [Example 65, 2,3-Dihydro-benzofuran-5-carboxylic acid {2-[3-(1-hydroxy-1-methyl-ethyl)-azetidin-1-yl]-benzooxazol-5-yl}-amide]"
17,1610,"O=C(Nc1ccc2oc(N3CC4(CCO4)C3)nc2c1)c1ccc2c(c1)CCO2 [Example 21, 2,3-Dihydro-benzofuran-5-carboxylic acid [2-(1-oxa-6-aza-spiro[3.3]hept-6-yl)-benzooxazol-5-yl]-amide]"
18,352,"O=C(Nc1ccc2oc(N3CCCC34COC4)nc2c1)c1ccc2c(c1)CCO2 [Example 24, 2,3-Dihydro-benzofuran-5-carboxylic acid [2-(2-oxa-5-aza-spiro[3.4]oct-5-yl)-benzooxazol-5-yl]-amide]"
19,1220,"O=C(Nc1ccc2oc(N3CCC(O)CC3)nc2c1)c1ccc2c(c1)OCCO2 [Example 167, 2,3-Dihydro-benzo[1,4]dioxine-6-carboxylic acid [2-(4-hydroxy-piperidin-1-yl)-benzooxazol-5-yl]-amide]"
20,2170,"O=C(Nc1ccc2oc(N3CC4(CCCO4)C3)nc2c1)c1ccc2c(c1)CCO2 [Example 31, 2,3-Dihydro-benzofuran-5-carboxylic acid [2-(5-oxa-2-aza-spiro[3.4]oct-2-yl)-benzooxazol-5-yl]-amide]"
21,1140,"CC(C)OC1CN(c2nc3cc(NC(=O)c4ccc5c(c4)CCO5)ccc3o2)C1 [Example 44, 2,3-Dihydro-benzofuran-5-carboxylic acid [2-(3-isopropoxy-azetidin-1-yl)-benzooxazol-5-yl]-amide]"
22,2350,"O=C(Nc1ccc2sc(N3CCOCC3)nc2c1)c1ccc2c(c1)CCO2 [Example 82, 2,3-Dihydro-benzofuran-5-carboxylic acid (2-morpholin-4-yl-benzothiazol-5-yl)-amide]"
23,967,"CN1CCN(c2nc3cc(NC(=O)c4ccc5c(c4)CCO5)ccc3o2)CC1 [Example 4, 2,3-Dihydro-benzofuran-5-carboxylic acid [2-(4-methyl-piperazin-1-yl)-benzooxazol-5-yl]-amide]"
24,1220,"O=C(Nc1ccc2oc(N3CC4(CCCCO4)C3)nc2c1)c1ccc2c(c1)CCO2 [Example 34, 2,3-Dihydro-benzofuran-5-carboxylic acid [2-(5-oxa-2-aza-spiro[3.5]non-2-yl)-benzooxazol-5-yl]-amide]"
25,1750,"O=C(Nc1ccc2oc(N3CCCC3=O)nc2c1)c1ccc2c(c1)CCO2 [Example 38, 2,3-Dihydro-benzofuran-5-carboxylic acid [2-(2-oxo-pyrrolidin-1-yl)-benzooxazol-5-yl]-amide]"
26,10600,"O=C(Nc1ccc2oc(N3CC(F)(F)C3)nc2c1)c1ccc2c(c1)CCCO2 [Example 141, Chroman-6-carboxylic acid [2-(3,3-difluoro-azetidin-1-yl)-benzooxazol-5-yl]-amide]"
27,772,"O=C(Nc1ccc2oc(N3CCC34CCOC4)nc2c1)c1ccc2c(c1)OCO2 (stereo not drawn) [Example 125, Benzo[1,3]dioxole-5-carboxylic acid [2-(6-oxa-1-aza-spiro[3.4]oct-1-yl)-benzooxazol-5-yl]-amide]"
